Experiment: Effect of pH on the stability of lutein/lutein ester (absorbance of acetone aqueous solutions)
Format: physicochemical
Details: for Absorbance value: acetone aqueous solution; for Retention: after placing for 96 h at pH 1.5; for Change of absorbance values: under strong acid conditions
Description: Effect of pH on the Stability of Lutein/Lutein Ester The acetone aqueous solutions of lutein and lutein ester with pH 1.5 and pH 3 were prepared respectively, and the absorbance values at different time period are shown as follows: […]

Row | Absorbance value (pH 1.5, 0 h) | Absorbance value (pH 1.5, 12 h) | Absorbance value (pH 1.5, 24 h) | Absorbance value (pH 1.5, 36 h) | Absorbance value (pH 1.5, 48 h) | Absorbance value (pH 1.5, 96 h) | Absorbance value (pH 3.0, 0 h) | Absorbance value (pH 3.0, 12 h) | Absorbance value (pH 3.0, 24 h) | Absorbance value (pH 3.0, 36 h) | Absorbance value (pH 3.0, 48 h) | Absorbance value (pH 3.0, 96 h) | Retention [%] | Change of absorbance values | Compound
1 | 0.843 | 0.559 | 0.452 | 0.368 | 0.267 | 0.151 | 0.845 | 0.566 | 0.495 | 0.428 | 0.341 | 0.268 | 17.80 | decrease significantly | CC1=C[C@H](O)CC(C)(C)[C@H]1/C=C/C(C)=C/C=C/C(C)=C/C=C/C=C(C)/C=C/C=C(C)/C=C/C1=C(C)C[C@@H](O)CC1(C)C [Lutein, lutein]
2 | 0.844 | 0.588 | 0.466 | 0.377 | 0.259 | 0.155 | 0.837 | 0.597 | 0.502 | 0.439 | 0.356 | 0.274 | 18.36 | decrease significantly | lutein ester

Source: patent US10647669B2, “Composition containing lutein/lutein ester and applications thereof” (priority 2016, dated 2020)
